Experiments:
[1] = biological target: T1, human recombinant serotonin (5-Hydroxytryptamine) 5-HT6 receptor (Homo sapiens, UniProt P50406); test: Serotonin 5-HT6 radioligand binding ([3H]LSD); details: compound at 0.1 μM; read-out: Percentage inhibition of ligand binding, Serotonin (0.1 μM) 5-HT6
T1 construct: expressed in transfected cells; host or cells: human HeLa cells
Experimental: To evaluate in radioligand binding assays the activity of compounds of the invention, human recombinant serotonin (5-Hydroxytryptamine) 5-HT6 receptor expressed in human HeLa cells (Monsma, F. Jr. et al, Mol. Pharmacol. 43:320, 1993) in a modified Tris-HCl buffer (50 mM Tris-HCl, pH 7.4, 150 mM NaCl, 2 mM Ascorbic Acid, 0.001% BSA) was used. Compounds of the invention were incubated with 1.5 nM [3H]Lysergic acid diethylamide (LSD) for 120 min at 37° C. Non-specific binding was estimated in the presence of 5 μM Serotonin (5-HT). Receptor proteins were filtered and washed, the filters were then counted to determine [3H]LSD specifically bound. Compounds were screened at 1 μM or lower, using 1% DMSO as vehicle. Biochemical assay results are presented as the percent inhibition of specific binding in Table 4.

[2] = biological target: T2, human recombinant serotonin (5-Hydroxytryptamine) 5-HT2A receptor (Homo sapiens, UniProt P28223); test: Serotonin 5-HT2A radioligand binding ([3H]Ketanserin); details: compound at 0.1 μM; read-out: Percentage inhibition of ligand binding, Serotonin (0.1 μM) 5-HT2A
T2 construct: expressed in transfected cells; host or cells: Chinese hamster ovary (CHO) K1 cells
Experimental: To evaluate in radioligand binding assays the activity of compounds of the invention, human recombinant serotonin (5-Hydroxytryptamine) 5-HT2A receptor expressed in Chinese hamster ovary (CHO) K1 cells (Bonhaus, D. et al, Br. J. Pharmacol. 115:622, 1995; Saucier, C. et al, J. Neurochem. 68:1998, 1997) in a 50 mM Tris-HCl buffer, pH 7.4, was used. Compounds of the invention were incubated with 0.5 nM [^3H]Ketanserin for 60 min at 25° C. Non-specific binding was estimated in the presence of 1 μM Mianserin. Receptor proteins were filtered and washed, the filters were then counted to determine [^3H]Ketanserin specifically bound. Compounds were screened at 1 μM or lower, using 1% DMSO as vehicle. Biochemical assay results are presented as the percent inhibition of specific binding in Table 4.

[3] = biological target: T3, human recombinant serotonin (5-Hydroxytryptamine) 5-HT2C receptor (Homo sapiens, UniProt P28335); test: Serotonin 5-HT2C radioligand binding ([3H]Mesulergine); details: compound at 0.1 μM; read-out: Percentage inhibition of ligand binding, Serotonin (0.1 μM) 5-HT2C
T3 construct: expressed in transfected cells; host or cells: Chinese hamster ovary (CHO) K1 cells
T3 sequence (P28335 33-458): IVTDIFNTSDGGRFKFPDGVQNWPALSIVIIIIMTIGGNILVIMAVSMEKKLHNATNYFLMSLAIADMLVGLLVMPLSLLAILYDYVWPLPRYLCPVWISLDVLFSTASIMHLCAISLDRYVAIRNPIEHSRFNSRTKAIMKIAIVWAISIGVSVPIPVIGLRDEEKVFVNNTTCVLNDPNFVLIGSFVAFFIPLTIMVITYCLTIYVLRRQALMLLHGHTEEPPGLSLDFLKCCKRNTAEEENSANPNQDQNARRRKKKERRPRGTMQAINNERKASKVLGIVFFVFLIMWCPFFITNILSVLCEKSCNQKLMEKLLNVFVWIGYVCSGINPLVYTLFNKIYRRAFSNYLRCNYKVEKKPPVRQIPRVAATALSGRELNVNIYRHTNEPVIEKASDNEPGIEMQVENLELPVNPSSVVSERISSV
Experimental: To evaluate in radioligand binding assays the activity of compounds of the invention, human recombinant serotonin (5-Hydroxytryptamine) 5-HT2C receptor expressed in Chinese hamster ovary (CHO) K1 cells (Wolf, W. et al, J. Neurochem. 69:1449, 1997) in a modified Tris-HCl buffer (50 mM Tris-HCl, pH 7.4, 0.1% Ascorbic Acid, 10 μM Pargyline) was used. Compounds of the invention were incubated with 1 nM [^3H]Mesulergine for 60 min at 25° C. Non-specific binding was estimated in the presence of 1 μM Mianserin. Receptor proteins were filtered and washed, the filters were then counted to determine [^3H]Mesulergine specifically bound. Compounds were screened at 1 μM or lower, using 1% DMSO as vehicle. Biochemical assay results are presented as the percent inhibition of specific binding in Table 4.

[4] = biological target: T4, rat adrenergic α1A receptor (Rattus norvegicus, UniProt P43140); test: Adrenergic α1A radioligand binding ([3H]Prazosin); design: species or system Wistar Rat; details: compound at 0.1 μM; read-out: Percentage inhibition of ligand binding, Adrenergic (0.1 μM) a1A
T4 construct: rat adrenergic α1A receptor obtained from Wistar Rat submaxillary glands; from tissue; host or cells: Wistar Rat submaxillary glands
T4 sequence (P43140 1-466): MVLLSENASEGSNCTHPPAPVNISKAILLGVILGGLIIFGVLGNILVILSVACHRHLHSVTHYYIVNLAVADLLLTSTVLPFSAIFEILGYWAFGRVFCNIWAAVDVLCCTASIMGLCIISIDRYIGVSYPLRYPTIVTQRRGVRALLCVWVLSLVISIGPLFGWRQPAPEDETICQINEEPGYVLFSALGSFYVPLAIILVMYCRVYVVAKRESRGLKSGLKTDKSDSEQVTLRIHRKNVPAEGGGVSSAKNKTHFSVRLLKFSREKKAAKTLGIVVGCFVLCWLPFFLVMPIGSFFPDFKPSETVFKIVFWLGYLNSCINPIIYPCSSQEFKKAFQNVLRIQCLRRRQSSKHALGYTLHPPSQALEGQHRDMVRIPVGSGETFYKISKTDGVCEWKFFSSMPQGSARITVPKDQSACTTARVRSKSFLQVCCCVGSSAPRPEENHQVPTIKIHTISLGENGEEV
Experimental: To evaluate in radioligand binding assays the activity of compounds of the invention, rat adrenergic α1A receptor obtained from Wistar Rat submaxillary glands (Michel, A. et al, Br. J. Pharmacol. 98:883, 1989) in a modified Tris-HCl buffer (50 mM Tris-HCl buffer, pH 7.4, 0.5 mM EDTA) was used. Compounds of the invention were incubated with 0.25 nM [^3H]Prazosin for 60 min at 25° C. Non-specific binding was estimated in the presence of 10 μM phentolamine Receptor proteins were filtered and washed, the filters were then counted to determine [^3H]Prazosin specifically bound. Compounds of the invention were screened at 1 μM or lower, using 1% DMSO as vehicle. Biochemical assay results are presented as the percent inhibition of specific binding in Table 3.

T1 sequence (P50406 whole entry): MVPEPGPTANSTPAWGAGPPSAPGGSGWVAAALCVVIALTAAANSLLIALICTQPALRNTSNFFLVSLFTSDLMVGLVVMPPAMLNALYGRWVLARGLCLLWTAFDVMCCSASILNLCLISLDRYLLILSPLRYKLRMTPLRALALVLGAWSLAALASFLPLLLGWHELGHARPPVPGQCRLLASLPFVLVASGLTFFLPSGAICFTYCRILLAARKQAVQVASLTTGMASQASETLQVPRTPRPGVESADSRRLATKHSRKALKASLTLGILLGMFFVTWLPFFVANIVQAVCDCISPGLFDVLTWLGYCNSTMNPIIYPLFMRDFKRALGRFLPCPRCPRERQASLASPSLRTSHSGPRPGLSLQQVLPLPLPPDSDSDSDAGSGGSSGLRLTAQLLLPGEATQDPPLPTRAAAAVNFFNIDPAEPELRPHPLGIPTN
T2 sequence (P28223 whole entry): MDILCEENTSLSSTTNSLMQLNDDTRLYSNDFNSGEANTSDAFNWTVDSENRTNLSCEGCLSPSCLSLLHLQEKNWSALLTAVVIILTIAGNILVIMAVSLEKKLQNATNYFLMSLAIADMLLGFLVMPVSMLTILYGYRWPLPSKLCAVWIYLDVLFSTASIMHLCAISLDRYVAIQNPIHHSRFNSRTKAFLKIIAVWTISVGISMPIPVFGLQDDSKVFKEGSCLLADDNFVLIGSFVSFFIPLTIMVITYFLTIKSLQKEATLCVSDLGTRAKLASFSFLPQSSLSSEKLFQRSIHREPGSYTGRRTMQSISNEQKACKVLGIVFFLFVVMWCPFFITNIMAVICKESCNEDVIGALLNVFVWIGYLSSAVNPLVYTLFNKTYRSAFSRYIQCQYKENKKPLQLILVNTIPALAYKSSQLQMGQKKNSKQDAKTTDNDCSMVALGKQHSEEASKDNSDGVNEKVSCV

Compound | inhibition at 0.1 µM [1] | inhibition at 0.1 µM [2] | inhibition at 0.1 µM [3] | inhibition at 0.1 µM [4]
C#CCC1(C)CN(C)Cc2c1n(C)c1ccc(C)cc21 (centres unmarked) [Compound 47, 2,4,5,8-tetramethyl-4-(prop-2-ynyl)-2,3,4,5-tetrahydro-1H-pyrido[4,3-b]indole] | 14% | 32% | 19% | 16%
Cc1ccc2c(c1)c1c(n2C)C(C)(CCc2nc(-c3ccccc3)cs2)CN(C)C1 (centres unmarked) [Compound 48] | 22% | 39% | 25% | 34%
